From paper PMC10782944 (Science immunology, 2023)

Assays:
10LH = test: SPR of peptide-loaded HLA-A*24:02 flowed over 10LH-biotin on a streptavidin chip; format: binding; conditions: peptide loaded on HLA-A*24:02
HLA-B*08:01 = HLA-B*08:01 (Homo sapiens, UniProt P01889, A93T/A95T/D138N/E176V/E187T/K202T/Q94N/R180D/S35A/V36M/Y33D/Y91F); test: pHLA complex formation of PHOX2B peptide with HLA-B*08:01; conditions: HLA-B*08:01, despite NetMHCpan 4.1 prediction

formation of stable complexes with the HLA (HLA-B*08:01)	Sequence	dissociation rate (qualitative) (10LH)
	LYLPVRVLI [ATG2A]	slow dissociation rate
did not form stable complexes	QYNPIRTTF [PHOX2B]	
